Holding throughout (assay): NCI-60 cell line screen, 48 h
For assay [1], the system named is MCF7 breast.
Assay [2] has as its system NCI-H522 lung.
Assay [3] relates to OVCAR-4 ovarian.
Assay [4] deals with SK-MEL-2 melanoma.
The subject of assay [5] is RPMI-8226 leukemia.
Assay [6] deals with HT29 colon.
The test system of assay [7] is A498 renal.
For assay [8], the system named is SN12C renal.
The test system of assay [9] is ACHN renal.
For assay [10], the system named is MDA-MB-231 breast.
Assay [11] deals with HL-60(TB) leukemia.
Assay [12] deals with DU-145 prostate.
Assay [13] has as its system M14 melanoma.
For assay [14], the system named is EKVX NSCLC.
For assay [15], the system named is COLO 205 colon.
The subject of assay [16] is UACC-257 melanoma.
Assay [17] has as its system CCRF-CEM leukemia.
For assay [18], the system named is LOX IMVI melanoma.
Assay [19] relates to SNB-75 CNS.
Assay [20] has as its system SK-MEL-5 melanoma.

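Method: 48-hour compound exposure of cells in 96-well plates, five concentrations, linear interpolation of endpoints. Definition used: TGI = concentration required for complete inhibition of growth.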

As for `Clc1cc(OCc2nn3c(Cc4ccccc4)nnc3s2)c(Cl)cc1OCc1nn2c(Cc3ccccc3)nnc2s1`, the TGI is over 100 µM in assay [1]; over 100 µM in assay [2]; over 100 µM in [3]; over 100 µM in assay [4]; 30.1 µM in assay [5]; over 100 µM in [6]. In addition, the TGI is 88.5 µM in assay [7]; over 100 µM in assay [8]; over 100 µM in assay [9]; over 100 µM in [10]; over 100 µM in assay [11]; over 100 µM in assay [12]. Further, the TGI in assay [13], in assay [14], in assay [15], in assay [16], in assay [17] and in assay [18] was over 100 µM each time. Besides, the TGI in assay [19] was 9.97 µM; in assay [20] it was over 100 µM.

On to `O=C1C(c2c(O)[nH]c3ccc(Cl)cc23)=Nc2ccccc21`, for which the TGI in [1] is over 22 µM; in assay [2], over 100 µM; in assay [3], 5.42 µM; in assay [4], over 26.3 µM; in assay [5] it was over 100 µM; in [6], over 100 µM. For the same compound, the TGI is 13.1 µM in assay [7]; over 100 µM in assay [8]; 20.3 µM in assay [9]; 6.9 µM in assay [10]; over 100 µM in assay [11]; over 25.9 µM in [12]. For the same compound, the TGI in [13] was over 100 µM; in [14], over 53.1 µM; in assay [15] it was over 100 µM; in assay [16], over 100 µM; in assay [17], over 100 µM; in [18], over 79.7 µM. Further, the values for the TGI in [19] and in assay [20] were 15.5 µM and 17.7 µM, respectively.

On to `O=[N+]([O-])C(C(Cl)=C(Cl)Cl)=C(n1nnc2ccccc21)n1nnc2ccccc21`, for which the TGI was over 55.4 µM in assay [1]; 38.6 µM in [2]; 66.3 µM in assay [3]; over 65.3 µM in assay [4]; 56.4 µM in assay [5]; 59.6 µM in assay [6]. For the same compound, the TGI in assay [7] was over 90 µM; in [8], 56.7 µM; in assay [9], over 65.8 µM; in [10], 38.5 µM; in [11] it was 13.5 µM; in [12], over 100 µM. Also, the TGI is 50.8 µM in assay [13]; over 74.6 µM in assay [14]; 51.9 µM in assay [15]; over 68.1 µM in assay [16]; 43.9 µM in [17]; over 66.3 µM in [18]. Moreover, the values for the TGI in assay [19] and in [20] were over 58.1 µM and over 67.8 µM, respectively.

On to `N#Cc1c(N)nc(SCc2ccccc2)c(C#N)c1-c1ccc(O)cc1`, for which the TGI in assay [1] amounted to 30.6 µM; in [2], 36.3 µM; in assay [3], 30.4 µM; in [4], 35.5 µM; in [5], 29.8 µM; in assay [6] it was 23.1 µM. Also, the TGI in assay [7] was 30.6 µM; in assay [8], 33.4 µM; in assay [9], 28.9 µM; in assay [10], 28.5 µM; in assay [11] it was 32.8 µM; in assay [12], 27.2 µM. The TGI was 29.2 µM in assay [13]; 26.3 µM in assay [14]; 37.8 µM in [15]; over 52.4 µM in [16]; 38.6 µM in assay [17]; 43 µM in assay [18]. Also, the results for the TGI in [19] and in [20] were 38.9 µM and 27.1 µM, respectively.

Take `COc1ccc(CCc2ccc3c(c2)OCO3)cc1`: the TGI was over 100 µM in [1]; over 100 µM in assay [2]; over 100 µM in assay [3]; 92.4 µM in assay [4]; over 100 µM in assay [5]; over 100 µM in assay [6]. For the same compound, the TGI in assay [7], in assay [8], in assay [9], in assay [10], in assay [11] and in assay [12] was over 100 µM throughout. For the same compound, the TGI in assay [13], in assay [14], in assay [15], in assay [16], in [17] and in assay [18] was over 100 µM each time. For the same compound, the TGI in [19] and in assay [20] was over 100 µM in each case.

Consider `O=C1N/C(=N\N=C\c2ccccc2)C2(CCCCC2)O1`, for which the TGI in assay [1], in assay [2], in assay [3], in assay [4], in assay [5] and in [6] was over 100 µM throughout. Further, the TGI in assay [7], in assay [8], in [9], in [10], in assay [11] and in assay [12] was over 100 µM throughout. Moreover, the TGI in assay [13] is over 100 µM; in [14], over 100 µM; in [15], over 100 µM; in assay [16], over 100 µM; in assay [17], 61.1 µM; in assay [18], over 100 µM. The values for the TGI in assay [19] and in assay [20] were 88.5 µM and over 100 µM, respectively.

Regarding `CC1CC(=NC2CCCCC2)Nc2ccccc2N1Cc1ccccc1` (stereo not given), the TGI in assay [1] was 14.5 µM; in assay [2] it was 13.6 µM; in assay [3], 20.2 µM; in [4] it was 24.9 µM; in [5], over 32.7 µM; in assay [6], 12.5 µM. The TGI in [7] was determined as 9.7 µM; in assay [8], 22.1 µM; in assay [9] it was 22.8 µM; in assay [10], 17 µM; in assay [11], 20.2 µM; in [12], 17 µM. The TGI is 4.46 µM in [13]; 21 µM in assay [14]; 17 µM in [15]; 13.2 µM in assay [16]; over 36.4 µM in assay [17]; 6.85 µM in assay [18]. Also, the TGI in [19] was 3.18 µM; in [20], 6.77 µM.

These data come from PubChem BioAssay (NCI).
